Assay results reported in patent publication US8859588B2, “Substituted N-heteroaryl bipyrrolidine carboxamides, preparation and therapeutic use thereof” (SANOFI, priority 2010, dated 2014).

molecular target: T1, rhesus (Macacca Mulatta) H3 receptor (Macaca mulatta, UniProt Q865E1); assay: Rhesus H3 radioligand binding assay ([3H]-Methylhistamine displacement, WGA SPA); set-up: species or system rhesus monkey (Macacca Mulatta); details: [3H]-Methylhistamine 2 nM; rhesus H3 membranes from Flp-In T-REx 293 cells; 25° C., 1 hour; Ki by Cheng-Prusoff equation
T1 construct: rhesus monkey (Macacca Mulatta) 445 amino acid H3 receptor; (Genbank #AY231164); expressed in transfected cells; host or cells: Flp-In T-REx 293 Cell Line (Invitrogen), pcDNA5/FRT/TO vector, induced with tetracycline; membrane preparation
T1 sequence (Q865E1 1-445): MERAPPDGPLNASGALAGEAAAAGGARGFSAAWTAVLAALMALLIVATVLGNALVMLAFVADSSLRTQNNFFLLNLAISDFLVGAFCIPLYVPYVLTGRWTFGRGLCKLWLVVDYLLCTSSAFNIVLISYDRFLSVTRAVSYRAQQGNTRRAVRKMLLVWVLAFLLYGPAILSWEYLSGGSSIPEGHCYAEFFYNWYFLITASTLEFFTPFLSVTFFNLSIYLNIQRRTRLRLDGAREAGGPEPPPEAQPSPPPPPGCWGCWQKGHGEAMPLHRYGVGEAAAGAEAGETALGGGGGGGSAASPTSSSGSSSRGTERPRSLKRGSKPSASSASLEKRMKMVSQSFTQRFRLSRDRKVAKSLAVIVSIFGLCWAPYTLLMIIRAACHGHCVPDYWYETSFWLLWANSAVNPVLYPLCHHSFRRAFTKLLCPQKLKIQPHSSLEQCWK
Experimental: Rhesus H3 membranes were prepared from the Flp-In T-REx 293 Cell Line (Invitrogen) stably transfected with pcDNA5/FRT/TO (Invitrogen) containing the rhesus monkey (Macacca Mulatta) 445 amino acid H3 receptor. (Genbank #AY231164). Stably transfected cultures were amplified in tissue culture flasks by standard tissue culture methods and induced to express rhesus H3 by exposure to 500 ng/ml tetracycline (Cellgro) for 24 hours. After induction, cells were dissociated from flasks utilizing Cell Stripper (Cellgro). Cells were centrifuged (1K×g, 5 min) and pellet frozen in an ethanol-dry ice bath to disrupt cell membranes. Frozen cell pellet was re-suspended in 5 mM HEPES (pH 7.4, Invitrogen) at 10 ml/1000 cm2 of harvested cells. The cell suspension was drawn through an 18 gauge needle (2-3×) followed by a 23 gauge needle (2-3×) to further disrupt cell membranes. The cell suspension was centrifuged (40K×g, 30 min). Cell membrane pellet was re-suspended in 5 mM HEPES (pH 7.4, Invitrogen) at a final protein concentration of 10 mg/ml. Rhesus H3 membranes were stored under liquid nitrogen prior to use in [3H]-Methylhistamine and GTPγS radioligand binding assays.
Rhesus H3 radioligand binding assay was performed using rhesus H3 receptor membranes (prepared as described above), [3H]-Methylhistamine (Perkin Elmer) and WGA SPA beads (wheat germ agglutinin scintillation proximity assay) beads (Amersham). The assay was performed in 96-well Opti-Plates (Packard). Each reaction contained 50 μl rhesus H3 membranes (20-30 μg total protein), 50 μl WGA SPA beads (0.1 μg) and 50 μl of 83 Ci/mmol [^3H]-Methylhistamine (final concentration 2 nM) and 50 μl of tested compound. The compounds of this invention and/or vehicle were diluted with binding buffer from 10 mM DMSO stocks. Assay plates were sealed with TopSeal (Perkin Elmer) and mixed on shaker (25° C., 1 hour). Assay plates were read on TopCount scintillation counter (Packard). Results were analyzed by Hill transformation and Ki values were determined by Cheng-Prusoff equation.

Row | Ki [µM] | SMILES
1 | 0.0024 | Cc1nc(N2CC[C@H](N3CCC[C@@H]3C)C2)ccc1NC(=O)C1CCOCC1 [Example 1, Tetrahydro-pyran-4-carboxylic acid [2-methyl-6-((2S,3′S)-2-methyl-[1,3′]bipyrrolidinyl-1′-yl)-pyridin-3-yl]-amide]
2 | 0.027 | C[C@H]1CCCN1[C@H]1CCN(c2ccc(NC(=O)C3CCOCC3)nc2)C1 [Example 2, Tetrahydro-pyran-4-carboxylic acid [5-((2S,3′S)-2-methyl-[1,3′]bipyrrolidinyl-1′-yl)-pyridin-2-yl]-amide]
3 | 0.00424 | Cc1nc(N2CC[C@H](N3CCC[C@@H]3C)C2)ccc1NC(=O)c1cccc2ccccc12 [Example 3, Naphthalene-1-carboxylic acid [2-methyl-6-((2S,3′S)-2-methyl-[1,3′]bipyrrolidinyl-1′-yl)-pyridin-3-yl]-amide]
4 | 0.0049 | Cc1nc(N2CC[C@H](N3CCC[C@@H]3C)C2)ccc1NC(=O)Cc1ccccc1 [Example 4, N-[2-Methyl-6-((2S,3′S)-2-methyl-[1,3′]bipyrrolidinyl-1′-yl)-pyridin-3-yl]-2-phenyl-acetamide]
5 | 0.0263 | Cc1nc(N2CC[C@H](N3CCC[C@@H]3C)C2)ccc1NS(=O)(=O)C1CCCCC1 [Example 5, Cyclohexanesulfonic acid [2-methyl-6-((2S,3′S)-2-methyl-[1,3′]bipyrrolidinyl-1′-yl)-pyridin-3-yl]-amide]
6 | 0.00251 | Cc1nc(N2CC[C@H](N3CCC[C@@H]3C)C2)ccc1NS(=O)(=O)c1ccc(F)c(F)c1 [Example 6, 3,4-Difluoro-N-[2-methyl-6-((2S,3′S)-2-methyl-[1,3′]bipyrrolidinyl-1′-yl)-pyridin-3-yl]-benzenesulfonamide]
7 | 0.00809 | Cc1nc(N2CC[C@H](N3CCC[C@@H]3C)C2)ccc1NC(=O)c1ccccc1 [Example 7, N-[2-Methyl-6-((2S,3′S)-2-methyl-[1,3′]bipyrrolidinyl-1′-yl)-pyridin-3-yl]-benzamide]
8 | 0.00246 | CC(=O)N1CCC(C(=O)Nc2ccc(N3CC[C@@H](N4CCC[C@@H]4C)C3)nc2C)CC1 [Example 8, 1-Acetyl-piperidine-4-carboxylic acid [2-methyl-6-((2S,3R)-2-methyl-[1,3′]bipyrrolidinyl-1′-yl)-pyridin-3-yl]-amide]
9 | 0.195 | Cc1ccc(F)cc1C(=O)Nc1ccc(N2CC[C@@H](N3CCC[C@@H]3C)C2)nc1C [Example 9, 5-Fluoro-2-methyl-N-[2-methyl-6-((2S,3′R)-2-methyl-[1,3′]bipyrrolidinyl-1′-yl)-pyridin-3-yl]-benzamide]
10 | 0.036 | Cc1nc(N2CC[C@@H](N3CCC[C@@H]3C)C2)ccc1NC(=O)c1cccs1 [Example 10, Thiophene-2-carboxylic acid [2-methyl-6-((2S,3′R)-2-methyl-[1,3′]bipyrrolidinyl-1′-yl)-pyridin-3-yl]-amide]
11 | 0.084 | Cc1nc(N2CC[C@@H](N3CCC[C@@H]3C)C2)ccc1NC(=O)c1c(C)noc1C [Example 11, 3,5-Dimethyl-isoxazole-4-carboxylic acid [2-methyl-6-((2S,3′R)-2-methyl-[1,3′]bipyrrolidinyl-1′-yl)-pyridin-3-yl]-amide]
12 | 0.0296 | Cc1nc(N2CC[C@@H](N3CCC[C@@H]3C)C2)ccc1NS(=O)(=O)c1ccc(F)cc1 [Example 12, 4-Fluoro-N-[2-methyl-6-((2S,3′R)-2-methyl-[1,3′]bipyrrolidinyl-1′-yl)-pyridin-3-yl]-benzenesulfonamide]
13 | 0.0371 | Cc1nc(N2CC[C@@H](N3CCC[C@@H]3C)C2)ccc1NS(=O)(=O)C1CC1 [Example 13, Cyclopropanesulfonic acid [2-methyl-6-((2S,3′R)-2-methyl-[1,3′]bipyrrolidinyl-1′-yl)-pyridin-3-yl]-amide]
